# Test results: ChEMBL document CHEMBL4376853, “Synthesis and structure-activity relationship studies of α-naphthoflavone derivatives as CYP1B1 inhibitors” (Eur J Med Chem, 2020)
# Legend:
# Homo sapiens [1] = species on record: Homo sapiens; test: Selectivity index, ratio of IC50 for human recombinant CYP1A2 to IC50 for human recombinant CYP1B1 using 7-ethoxyresorufin as substrate in presence of glucose-6-phosphate, glucose-6-phosphate dehydrogenase and NADPH-generating system by fluorometry
# Cytochrome P450 1A1 = biological target: T1, Cytochrome P450 1A1 (Homo sapiens, UniProt P04798); test: Inhibition of human recombinant CYP1A1 using 7-ethoxyresorufin as substrate in presence of glucose-6-phosphate, glucose-6-phosphate dehydrogenase and NADPH-generating system incubated for 15 mins by fluorometry; type: ADME
# T1 sequence (P04798 whole entry): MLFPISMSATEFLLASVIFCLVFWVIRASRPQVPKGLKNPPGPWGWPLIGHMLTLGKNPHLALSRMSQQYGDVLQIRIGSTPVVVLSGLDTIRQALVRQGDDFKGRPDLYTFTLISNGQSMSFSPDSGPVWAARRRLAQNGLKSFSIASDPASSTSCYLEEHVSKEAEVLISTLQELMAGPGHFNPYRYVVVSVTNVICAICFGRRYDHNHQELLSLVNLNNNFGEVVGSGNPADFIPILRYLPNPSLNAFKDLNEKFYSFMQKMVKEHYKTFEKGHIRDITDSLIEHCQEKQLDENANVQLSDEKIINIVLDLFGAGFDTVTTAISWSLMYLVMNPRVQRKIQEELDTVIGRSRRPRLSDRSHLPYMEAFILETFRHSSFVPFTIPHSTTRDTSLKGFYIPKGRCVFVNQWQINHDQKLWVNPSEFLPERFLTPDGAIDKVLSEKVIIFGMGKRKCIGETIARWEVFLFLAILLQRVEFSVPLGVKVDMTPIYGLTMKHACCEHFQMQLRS
# Homo sapiens [2] = species on record: Homo sapiens; test: Selectivity index, ratio of IC50 for human recombinant CYP1A1 to IC50 for human recombinant CYP1B1 using 7-ethoxyresorufin as substrate in presence of glucose-6-phosphate, glucose-6-phosphate dehydrogenase and NADPH-generating system by fluorometry
# Cytochrome P450 1B1 [3] = biological target: T2, Cytochrome P450 1B1 (Homo sapiens, UniProt Q16678); test: Inhibition of human recombinant CYP1B1 using 7-ethoxyresorufin as substrate in presence of glucose-6-phosphate, glucose-6-phosphate dehydrogenase and NADPH-generating system incubated for 35 mins by fluorometry
# T2 sequence (Q16678 whole entry): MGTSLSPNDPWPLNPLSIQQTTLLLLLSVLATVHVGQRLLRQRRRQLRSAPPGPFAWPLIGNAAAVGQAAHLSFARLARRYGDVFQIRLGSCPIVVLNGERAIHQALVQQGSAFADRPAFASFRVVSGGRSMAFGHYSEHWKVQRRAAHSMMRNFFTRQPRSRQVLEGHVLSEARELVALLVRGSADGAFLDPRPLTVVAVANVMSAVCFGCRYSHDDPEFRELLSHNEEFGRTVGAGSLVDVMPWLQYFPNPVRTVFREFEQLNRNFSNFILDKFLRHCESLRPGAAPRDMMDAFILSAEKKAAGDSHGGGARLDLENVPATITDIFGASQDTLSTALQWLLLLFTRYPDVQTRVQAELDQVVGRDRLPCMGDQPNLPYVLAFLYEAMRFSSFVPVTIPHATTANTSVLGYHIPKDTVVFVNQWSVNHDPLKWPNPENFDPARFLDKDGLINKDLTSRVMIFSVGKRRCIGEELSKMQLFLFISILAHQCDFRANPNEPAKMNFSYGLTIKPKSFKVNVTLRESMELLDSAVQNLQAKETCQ
# Cytochrome P450 1B1 [4] = biological target: T2, Cytochrome P450 1B1; test: Potency index, ratio of IC50 for ANF to IC50 for test compound for inhibition of human recombinant CYP1B1 using 7-ethoxyresorufin as substrate in presence of glucose-6-phosphate, glucose-6-phosphate dehydrogenase and NADPH-generating system incubated for 35 mins by fluorometry
# Cytochrome P450 1A2 = biological target: T3, Cytochrome P450 1A2 (Homo sapiens, UniProt P05177); test: Inhibition of human recombinant CYP1A2 using 7-ethoxyresorufin as substrate in presence of glucose-6-phosphate, glucose-6-phosphate dehydrogenase and NADPH-generating system incubated for 50 mins by fluorometry; type: ADME
# T3 sequence (P05177 whole entry): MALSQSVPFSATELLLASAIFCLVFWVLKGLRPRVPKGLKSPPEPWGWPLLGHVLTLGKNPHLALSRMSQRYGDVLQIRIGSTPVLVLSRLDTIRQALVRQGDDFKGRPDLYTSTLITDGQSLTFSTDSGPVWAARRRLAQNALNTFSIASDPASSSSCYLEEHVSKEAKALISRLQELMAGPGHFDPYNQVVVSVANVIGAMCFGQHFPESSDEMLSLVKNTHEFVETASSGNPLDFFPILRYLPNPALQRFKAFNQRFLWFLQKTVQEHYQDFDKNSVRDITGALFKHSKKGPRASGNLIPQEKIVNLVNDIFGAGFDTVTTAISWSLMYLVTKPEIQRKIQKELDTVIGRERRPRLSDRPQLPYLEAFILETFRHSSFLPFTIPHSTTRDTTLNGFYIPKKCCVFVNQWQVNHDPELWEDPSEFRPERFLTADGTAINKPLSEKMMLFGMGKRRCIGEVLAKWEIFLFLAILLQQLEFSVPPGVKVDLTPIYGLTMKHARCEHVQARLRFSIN
# [5] = Aqueous solubility of the compound; type: physicochemical; conditions: buffer
SMILES,Ratio IC50 (Homo sapiens [1]),IC50 (Cytochrome P450 1A1) [nM],Ratio IC50 (Homo sapiens [2]),IC50 (Cytochrome P450 1B1 [3]) [nM],selectivity ratio at 35 min (Cytochrome P450 1B1 [4]; read-out: Ratio IC50),IC50 (Cytochrome P450 1A2) [nM],relative potency vs ANF (IC50 ratio) at 35 min (Cytochrome P450 1B1 [4]),solubility [5] [mg/mL]
O=c1cc(-c2cccc(N3CCOCC3)c2)oc2c1ccc1ccccc12,159,30.9,15.5,2,3,318,–,–
S=c1cc(-c2ccc(Cl)cc2)oc2c1ccc1ccccc12,33.3,9.6,6,1.6,–,53.2,3,–
CN1CCN(c2ccc(-c3cc(=O)c4ccc5ccccc5c4o3)cc2)CC1,–,153,2.4,63.8,–,> 1000,–,> 20
O=c1cc(-c2cccc(Cl)c2)oc2c1ccc1ccccc12,150,5.2,10.6,0.49,–,73.6,12,–
